The values that follow come from PubChem BioAssay (NCI).

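Assay format: 96-well plates, 48-hour exposure. GI50 marks 50% less growth. TGI: total growth inhibition.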 *1 amine or outer side, *2 acyl side, *3 side chain or, on linkers, in order; H or OH if unused. Where a SMILES comes first, the peptide text is derived from it. [ ]: non-standard residue; d: D form. ξ: configuration not given here. X21 = CC[C@@H](C)C(N[*:1])C(=O)[*:2]; ξR = N=C(N)NCCCC(N)C(=O)O; ξI = CCC(C)C(N)C(=O)O; ξL = CC(C)CC(N)C(=O)O; ξK = NCCCCC(N)C(=O)O; ξV = CC(C)C(N)C(=O)O; ξA = CC(N)C(=O)O

Assay in all cases: NCI anticancer screen, dose series, 48 h
The test system of assay [1] is DU-145 prostate.
In assay [2] the test system is HOP-62 NSCLC.
Assay [3] has as its system K-562 leukemia.
Assay [4] has as its system NCI-H460 lung.
In assay [5] the test system is OVCAR-5 ovarian.
In assay [6] the test system is SF-268 CNS.
Assay [7] relates to SF-295 CNS.
Assay [8] deals with SK-MEL-5 melanoma.
For assay [9], the system named is SR leukemia.
Assay [10] relates to UACC-257 melanoma.

With `CC1(C)CC(Nc2ccc(Nc3ccccc3)cc2)CC(C)(C)N1`, the TGI in assay [1] is 61.1 µM; in assay [2], 77.3 µM; in assay [3], 39.2 µM; in assay [4], 64 µM; in assay [5], above 63.1 µM; in assay [6], above 85.4 µM. The TGI in [7] is above 95.3 µM; in assay [8], 30.5 µM; in [9], 50.2 µM; in assay [10] it was 23.9 µM.

On to `COc1ccccc1-c1cc(=O)c2ccc(OC)c(OC)c2o1`, for which the TGI in assay [1], in assay [2], in [3], in [4], in assay [5] and in assay [6] was above 100 µM in each case. Further, the TGI in [7], in [8], in assay [9] and in assay [10] was above 100 µM in each case.

With `COc1ccc2c(c1)C1(C(=O)N2)C(C#N)=C(c2ccccc2)Nc2c1c(-c1ccccc1)nn2-c1ccccc1` (stereo not given), the GI50 was 2.71 µM in assay [1]; 2.28 µM in assay [2]; 4.6 µM in [3]; 1.98 µM in [4]; 5.46 µM in [5]; 4.9 µM in [6]. Besides, the GI50 in [7] was 8.86 µM; in assay [8], 2.4 µM; in assay [9], 3.08 µM; in assay [10] it was 16 µM. The TGI turned out to be 6.82 µM in assay [1]; 7.07 µM in assay [2]; 22.9 µM in assay [3]; 3.75 µM in assay [4]; 19.8 µM in assay [5]; 17.9 µM in [6]. Moreover, the TGI in assay [7] came to 21.1 µM; in [8] it was 6.62 µM; in assay [9], 8.65 µM; in assay [10] it was 31.5 µM.

In the case of `COc1ccc(/C=C/NC=O)cc1`, the TGI in assay [1], in assay [2], in assay [3], in assay [4], in assay [5] and in assay [6] was above 100 µM throughout. Also, the TGI in assay [7], in [8], in [9] and in [10] was above 100 µM throughout.

`NS(=O)(=O)c1ccc(NC(=O)c2cccc3cc4ccccc4nc23)cc1`: the TGI in assay [1], in [2], in assay [3], in [4], in assay [5] and in assay [6] was above 100 µM throughout. Moreover, the TGI in assay [7], in assay [8], in assay [9] and in assay [10] was above 100 µM in each case.

Consider `N#C/C(=C\c1ccc(Br)cc1)n1nnc2ccccc21`, for which the GI50 is 1.23 µM in [1]; 1.92 µM in assay [2]; 0.235 µM in assay [3]; 1.68 µM in [4]; 1.13 µM in assay [5]; 2.62 µM in assay [6]. For the same compound, the GI50 in assay [7] is 1.18 µM; in [8], 0.999 µM; in assay [9] it was 0.144 µM; in [10] it was 1.19 µM. Further, the TGI was 3.31 µM in assay [1]; 10.5 µM in assay [2]; above 19.7 µM in assay [3]; 3.82 µM in [4]; 3.26 µM in assay [5]; 9.24 µM in [6]. Moreover, the TGI is 8.9 µM in assay [7], 2.32 µM in [8], 14.6 µM in assay [9] and 4.26 µM in assay [10].

Take `CNCCCNCCCN1C(=O)c2ccc3c4c(ccc(c24)C1=O)C(=O)N(CCCNCc1ccccc1OC)C3=O`: the GI50 is 1.05 µM in assay [1]; 1.24 µM in assay [2]; 0.408 µM in [3]; 0.429 µM in [4]; 1.25 µM in assay [5]; 1.03 µM in assay [6]. The GI50 was 0.894 µM in assay [7], 1.1 µM in assay [8], 0.27 µM in [9] and 1.35 µM in assay [10]. Also, the TGI in assay [1] is 2.39 µM; in assay [2], 4.44 µM; in [3], 2.9 µM; in assay [4] it was 2.86 µM; in assay [5], 4.14 µM; in assay [6], 9.02 µM. For the same compound, the TGI in [7] was determined as 2.39 µM; in [8] it was 2.32 µM; in assay [9] it was 2.45 µM; in [10] it was 2.72 µM.

Regarding `CCC(C)C1NC(=O)C(CC(C)C)NC(=O)C(C)NC(=O)C(C(C)C)NC(=O)C(CCCCN)NC(=O)C(CC(C)C)NC(=O)C(C(C)C)NC(=O)[C@H](C)NC(=O)C(C(C)CC)NC(=O)C(CCCN=C(N)N)NC(=O)C(CCCCN)NC(=O)C(CCCN=C(N)N)NC(=O)C(CCCCN)NC(=O)C([C@H](C)CC)NC(=O)C(CCCCN)NC1=O` (stereo not given in full) (cyclo(A[ξV][ξL][ξK][ξV][ξA][ξL][ξI][ξK][X21][ξK][ξR][ξK][ξR][ξI])), the GI50 is 1.81 µM in [1]; 1.7 µM in [2]; 0.783 µM in [3]; 1.57 µM in assay [4]; 1.94 µM in [5]; 1.76 µM in assay [6]. For the same compound, the GI50 in [7] was 1.04 µM; in assay [8], 0.6 µM; in [9], 1.48 µM; in assay [10], 0.476 µM. Moreover, the TGI in assay [1] is 4.75 µM; in [2], 4.18 µM; in assay [3], 3.79 µM; in [4] it was 3.49 µM; in assay [5], 7.16 µM; in [6], 5.12 µM. Also, the TGI in assay [7] stood at 2.52 µM; in [8], 1.87 µM; in [9], 4.1 µM; in [10], 2.58 µM.

Turning to `CS(=O)(=O)OCCN(CCOS(C)(=O)=O)c1ccc(C=O)cc1`, the TGI in assay [1] was 7.17 µM; in assay [2], 24 µM; in assay [3], above 100 µM; in assay [4], 3.36 µM; in assay [5], 14.4 µM; in [6] it was 43.5 µM. Moreover, the TGI worked out at 25.9 µM in [7], 29.1 µM in [8], 14.7 µM in assay [9] and 39.2 µM in assay [10].
